Measured values published in EPA's ToxRefDB 2.

Key:
rabbit [1] = details: Sub-acute dermal toxicity, new zealand white, Topical, dose end: 21 day, group: systemic, systemic / in life observation / clinical signs / erythema + systemic / pathology gross / skin / discolored + systemic / pathology gross / …
rat [2] = details: Subchronic oral toxicity in rodents, other, Gavage/Intubation, dose end: 92 day, group: systemic, systemic / in life observation / clinical signs / respiration (rales) + systemic / in life observation / mortality / mortality + systemic / …
rat [3] = details: Combined chronic toxicity/carcinogenicity, other, Oral, Feed, dose end: 24 month, group: systemic
rat [4] = details: Prenatal developmental toxicity study, other, Oral, Gavage/Intubation, dose end: 16 GD
rabbit [5] = details: Prenatal developmental toxicity study, new zealand white, Oral, Gavage/Intubation, dose end: 19 GD
mouse [6] = details: Carcinogenicity; cd1; Oral; Feed; dose end: 18 month; group: systemic; systemic / pathology microscopic / liver / vacuolization + systemic / pathology microscopic / seminal vesicle / distended + systemic / …
dog [7] = details: Chronic toxicity; beagle; Oral; Feed; dose end: 24 month; group: systemic; systemic / clinical chemistry / alanine aminotransferase (alt/sgpt) / alanine aminotransferase (alt/sgpt) + systemic / clinical chemistry / …
rat [8] = details: Prenatal developmental toxicity study, other, Oral, Gavage/Intubation, dose end: 16 GD; remark: listed apart in the source
rat [9] = details: Multigenerational reproductive toxicity study, long evans, Oral, Gavage/Intubation, dose end: 1 generation
dog [10] = details: Subchronic oral toxicity in nonrodent, beagle, Feed, dose end: 13 week, group: systemic
hamster = details: Multigenerational reproductive toxicity study, golden syrian, Oral, Gavage/Intubation, dose end: 1 generation
rat [11] = details: Sub-acute dermal toxicity, sprague dawley, Topical, dose end: 28 day, group: systemic
dog [12] = details: Chronic toxicity; beagle; Oral; Feed; dose end: 52 week; group: systemic; systemic / clinical chemistry / cholesterol / cholesterol
rat [13] = details: Combined chronic toxicity/carcinogenicity; sprague dawley; Oral; Feed; dose end: 115 week; group: systemic; systemic / in life observation / body weight / body weight
dog [14] = details: Chronic toxicity, beagle, Oral, Feed, dose end: 12 month, group: systemic
rabbit [15] = details: Prenatal developmental toxicity study, new zealand white, Oral, Capsule, dose end: 18 GD
rat [16] = details: Multigenerational reproductive toxicity study, sprague dawley, Oral, Feed, dose end: 2 generation
mouse [17] = details: Combined chronic toxicity/carcinogenicity, cd1, Oral, Feed, dose end: 89 week, group: systemic
[18] = systemic / organ weight / brain / absolute + systemic / organ weight / brain / relative to body weight
[19] = group: developmental, developmental / developmental malformation / bone / short + developmental / developmental malformation / bone / supernumerary
[20] = group: developmental, developmental / developmental malformation / bone / short + developmental / developmental malformation / bone / supernumerary + …
[21] = group: maternal, systemic / in life observation / body weight / body weight gain + systemic / in life observation / food consumption / food consumption
[22] = group: maternal, systemic / in life observation / body weight / body weight gain + systemic / in life observation / food consumption / food consumption + …
[23] = group: developmental, developmental / developmental malformation / other / other
[24] = group: maternal, reproductive / reproductive performance / postimplantation loss / postimplantation loss + reproductive / reproductive performance / …
[25] = group: developmental, developmental / developmental malformation / bone / bipartite ossification + developmental / developmental malformation / bone / dumbbell …
[26] = group: maternal, systemic / organ weight / liver / absolute
[27] = group: parental, systemic / organ weight / epididymis / absolute + systemic / organ weight / testes / absolute + systemic / pathology gross / sperm measure…
[28] = group: parental, systemic / pathology gross / sperm measure / sperm count + systemic / pathology microscopic / testes / atrophy
[29] = group: reproductive, reproductive / reproductive performance / pregnancy / pregnancy + reproductive / reproductive performance / resorptions / resorptions + …
[30] = systemic / in life observation / food consumption / food consumption + systemic / clinical chemistry / cholesterol / cholesterol + systemic…
[31] = group: offspring, systemic / in life observation / body weight / offspring (pup) weight
[32] = group: parental, systemic / pathology gross / kidney / enlarged + systemic / pathology gross / liver / enlarged + systemic / pathology gross / sperm measure…
[33] = systemic / pathology microscopic / epididymis / hypospermia + systemic / pathology microscopic / testes / degeneration
[34] = systemic / pathology microscopic / epididymis / hypospermia + systemic / pathology microscopic / testes / degeneration + systemic / …
[35] = systemic / pathology microscopic / lung / [other] + systemic / in life observation / clinical signs / inappetence + systemic / in life …
[36] = group: developmental, developmental / developmental malformation / bone / irregular ossification
[37] = group: maternal, reproductive / reproductive performance / aborted / aborted + systemic / in life observation / clinical signs / ataxia
[38] = group: maternal, reproductive / reproductive performance / aborted / aborted + systemic / in life observation / clinical signs / ataxia + systemic / in life …
[39] = group: offspring, systemic / organ weight / liver / relative to body weight
[40] = group: parental, systemic / organ weight / kidney / relative to body weight
[41] = systemic / in life observation / mortality / mortality

## O=C(CBr)c1ccc(O)cc1 [2-Bromo-4-hydroxyacetophenone]
Rabbit [1]
  LEL: 20 mg/kg/day
  LOAEL: 20 mg/kg/day
  NEL: < 20 mg/kg/day
  NOAEL: < 20 mg/kg/day
Rat [2]
  LEL: 30 mg/kg/day
  LOAEL: 30 mg/kg/day
  NEL: 6 mg/kg/day
  NOAEL: 6 mg/kg/day

## CCC(C)n1c(=O)[nH]c(C)c(Br)c1=O (stereo not given) [Bromacil]
Rat [3]; systemic / in life observation / body weight / body weight gain
  LOAEL: 9.82 mg/kg/day
Rat [3]; systemic / in life observation / body weight / body weight gain + systemic / in life observation / body weight / body weight + systemic / …
  NOAEL: 1.96 mg/kg/day
Rat [3]; [18]
  LEL: 1.96 mg/kg/day
  NEL: < 1.96 mg/kg/day
Rat [4]; [19]
  LEL: 200 mg/kg/day
  LOAEL: 200 mg/kg/day
Rat [4]; [20]
  NEL: 75 mg/kg/day
  NOAEL: 75 mg/kg/day
Rat [4]; [21]
  LEL: 75 mg/kg/day
  LOAEL: 75 mg/kg/day
Rat [4]; [22]
  NEL: 20 mg/kg/day
  NOAEL: 20 mg/kg/day
Rabbit [5]; [23]
  LEL: 500 mg/kg/day
  LOAEL: > 500 mg/kg/day
  NEL: 300 mg/kg/day
  NOAEL: ≥ 500 mg/kg/day
Rabbit [5]; [24]
  LEL: 300 mg/kg/day
  LOAEL: 300 mg/kg/day
  NEL: 100 mg/kg/day
  NOAEL: 100 mg/kg/day
Mouse [6]
  LEL: 36 mg/kg/day
  LOAEL: 36 mg/kg/day
  NEL: < 36 mg/kg/day
  NOAEL: < 36 mg/kg/day

## COC(=O)Nc1nc2ccccc2[nH]1 [Carbendazim]
Dog [7]
  LEL: 12.5 mg/kg/day
  LOAEL: 12.5 mg/kg/day
  NEL: 2.5 mg/kg/day
  NOAEL: 2.5 mg/kg/day
Rat [8]; [25]
  LEL: 20 mg/kg/day
  LOAEL: 20 mg/kg/day
  NEL: 10 mg/kg/day
  NOAEL: 10 mg/kg/day
Rat [8]; [26]
  LOAEL: 90 mg/kg/day
  NEL: 20 mg/kg/day
  NOAEL: 20 mg/kg/day
Rat [8]; group: maternal, systemic / organ weight / liver / absolute + reproductive / offspring survival early / live fetuses / live fetuses + reproductive / …
  LEL: 90 mg/kg/day
Rat [9]; [27]
  LOAEL: > 400 mg/kg/day
  NOAEL: ≥ 400 mg/kg/day
Rat [9]; [28]
  LEL: 50 mg/kg/day
  NEL: < 50 mg/kg/day
Rat [9]; group: reproductive, reproductive / reproductive performance / pregnancy / pregnancy + reproductive / offspring survival early / litter viability other / litter …
  LEL: 200 mg/kg/day
Rat [9]; group: reproductive, reproductive / reproductive performance / pregnancy / pregnancy + reproductive / reproductive performance / resorptions / resorptions
  NEL: 100 mg/kg/day
Rat [9]; [29]
  LOAEL: > 400 mg/kg/day
  NOAEL: ≥ 400 mg/kg/day
Dog [10]; systemic / clinical chemistry / cholesterol / cholesterol + systemic / pathology microscopic / liver / [other]
  LOAEL: 35 mg/kg/day
Dog [10]; systemic / in life observation / food consumption / food consumption + systemic / clinical chemistry / cholesterol / cholesterol
  LEL: 11.3 mg/kg/day
Dog [10]; [30]
  NEL: 2.7 mg/kg/day
  NOAEL: 11.3 mg/kg/day
hamster; [31]
  LEL: 400 mg/kg/day
  LOAEL: > 400 mg/kg/day
  NEL: < 400 mg/kg/day
  NOAEL: ≥ 400 mg/kg/day
hamster; [32]
  LEL: 400 mg/kg/day
  LOAEL: > 400 mg/kg/day
  NEL: < 400 mg/kg/day
  NOAEL: ≥ 400 mg/kg/day
Rat [11]; [33]
  LEL: 120 mg/kg/day
  LOAEL: 120 mg/kg/day
Rat [11]; [34]
  NEL: 20 mg/kg/day
  NOAEL: 20 mg/kg/day
Dog [12]
  LEL: 16.5 mg/kg/day
  LOAEL: 16.5 mg/kg/day
  NEL: 6.43 mg/kg/day
  NOAEL: 6.43 mg/kg/day

## COc1c(Cl)ccc(Cl)c1C(=O)O [Dicamba]
Rat [13]
  LEL: 125 mg/kg/day
  LOAEL: > 125 mg/kg/day
  NEL: 12.5 mg/kg/day
  NOAEL: ≥ 125 mg/kg/day
Dog [14]; systemic / pathology microscopic / lung / [other]
  NEL: 2 mg/kg/day
Dog [14]; systemic / pathology microscopic / lung / [other] + systemic / in life observation / clinical signs / inappetence
  LEL: 11 mg/kg/day
Dog [14]; [35]
  LOAEL: > 52 mg/kg/day
  NOAEL: ≥ 52 mg/kg/day
Rabbit [15]; [36]
  LEL: 300 mg/kg/day
  LOAEL: 300 mg/kg/day
  NEL: 150 mg/kg/day
  NOAEL: 150 mg/kg/day
Rabbit [15]; [37]
  LEL: 150 mg/kg/day
  LOAEL: 150 mg/kg/day
Rabbit [15]; [38]
  NEL: 30 mg/kg/day
  NOAEL: 30 mg/kg/day
Rat [16]; [31]
  LOAEL: 122 mg/kg/day
Rat [16]; group: offspring, systemic / in life observation / body weight / offspring (pup) weight + systemic / organ weight / liver / relative to body weight
  NOAEL: 40 mg/kg/day
Rat [16]; [39]
  LEL: 40 mg/kg/day
  NEL: < 40 mg/kg/day
Rat [16]; [40]
  LEL: 40 mg/kg/day
  NEL: < 40 mg/kg/day
Rat [16]; group: parental, systemic / organ weight / liver / relative to body weight
  LOAEL: 419 mg/kg/day
Rat [16]; group: parental, systemic / organ weight / liver / relative to body weight + systemic / in life observation / body weight / body weight + systemic / organ …
  NOAEL: 122 mg/kg/day
Mouse [17]; [41]
  LOAEL: 358 mg/kg/day
  NOAEL: 108 mg/kg/day
Mouse [17]; systemic / organ weight / kidney / nos
  LEL: 121 mg/kg/day
Mouse [17]; systemic / organ weight / kidney / nos + systemic / in life observation / body weight / body weight gain
  NEL: 18.8 mg/kg/day
